Earlier results on one compound are cited in publication PMC10976394 (ACS Omega, 2024).

The conditions of this series: human; cited from earlier work.

With `CC[C@@H]1CN(C(=O)NCC(F)(F)F)C[C@@H]1c1cnc2cnc3[nH]ccc3n12` [upadacitinib], the “clearance behavior under the arthritic condition” value is listed as “reduced the clearance behavior”.
